# Data reported in patent US20220233556A1, “COMPOSITIONS AND METHODS FOR TREATING OPHTHALMIC CONDITIONS” (Medicon Pharmaceuticals, Inc., priority 2017, published 2022).
# Read-outs that look alike come from different tables or passages of the source.
# How the values were obtained:
# [1] = tested on: oxygen-induced retinopathy; assay: Mouse model of oxygen-induced retinopathy; assay type: in vivo, C57BL/6 mice; settings: intravitreal 1 μl PS solution on P12, retina on P17, vs vehicle
# Excerpt: Several animal models have been explored to understand retinal vascular development. The mouse model of oxygen-induced retinopathy is the most widely used, and has played a pivotal role in our understanding of retinal angiogenesis and in the development of therapeutics such as anti-vascular endothelial growth factor injections for wet age-related macular degeneration.
# C57BL/6 mice were reared in 75±2% oxygen air starting on postnatal day 7 (P7) and moved into room air on P12, when they were injected intravitreally with 1 μl of […] PS solution or vehicle. The PS solution consisted of 4.0% PS, 20% Poloxamer 407 and 12% VETPGS (d-α-tocopheryl polyethylene glycol 1000 succinate). On P17, the pups were euthanized, both eyes were enucleated and fixed with 4% paraformaldehyde (PFA). Following several intermediate steps, the retina was existed and fixed further with 4% PFA overnight. After appropriate washings, the retina was incubated with 10 μg/ml of FITC-conjugated anti-lectin antibody overnight and retina flat-mounts were prepared on glass slides and evaluated by fluorescence microscopy. The areas of the avascular, neovascular and whole retina were determined using ImageJ software.
# uveitis = assay: LPS-induced uveitis in rats; assay type: in vivo; settings: PS 3% once intravitreally, 48 h
# Description: Uveitis was produced in rats by injecting LPS 75 ng into the footpad of rats. The rats were injected once intravitreally with 2 μPS 3% or vehicle. A control group included naïve rats (not LPS, no treatment). Forty-eight hours later we examined their eyes, sampled the aqueous humor and after euthanizing them we excised, fixed and stained with H&E ocular tissues following standard protocols. […] These findings document a very strong and unexpected therapeutic effect of PS against uveitis.
# corneal sensitivity = assay: Corneal touch threshold (CTT) assay, Cochet-Bonnet aesthesiometer; assay type: in vivo, rabbits
# Description: FIGS. 10A and 10B illustrate the ocular analgesic effect of PS. FIG. 10A: One drop of PS 0.5%, vehicle, or lidocaine was applied to one eye of rabbits (n=4/group) and the corneal touch threshold (CTT) was determined using an Eshesiometer. Vehicle had no effect on CTT (not shown; overlaps with the 0 value horizontal line). Values=mean±SEM. FIG. 10B: PS 0.5% in formulations differing in pH as indicated produced different analgesic responses in rabbits. The areas under each curve (AUC), indicted in the figure, that quantify these responses vary by as much as >5 fold. Values are the average of 2; all were within 11% of each other.
# FIGS. 11A and 11B illustrates the effect of various concentrations of PS on corneal sensitivity determined by the corneal touch threshold (CTT) assay. The CTT score is expressed as length of filament. Measurements were performed at the indicated time points after a single application of PS as an eye drop. Rabbits with normal or dry eyes were studied (n=6 eyes per group). Dry eyes were induced by Concanavalin A injection as described in the text. The % PS content in each study is shown. The numbers in parentheses indicate the corresponding value of the area under the curve. Values=mean±SEM.
# FIGS. 12A and 12B illustrate the effect of various drugs on corneal sensitivity determined by the corneal touch threshold (CTT) assay described herein. Each drug was used in its commercially available form; one eye drop of each was applied. The numbers in parentheses indicate the corresponding value of the area under the curve. Values=mean±SEM.
# The analgesic effect of PS was examined on the surface of the eye by determining the corneal touch threshold (CTT) using the Luneau Cochet-Bonnet Aesthesiometer (Western Ophthalmics, Lynwood, Wash.) an adjustable nylon monofilament with a defined diameter, which is applied in different lengths to the center of the cornea.
# In this embodiment, the composition of the PS preparation was: 0.5% PS, 18% (2-hydroxypropyl)-β-cyclodextrin (HP-β-CD), 1-4% Tween 80. Preparation Method: HP-β-CD was dissolved in purified water maintained in a 50° C. water bath. PS was added into this solution and kept at 50° C. overnight with stirring at 500 rpm until PS was fully dissolved. Tween 80 was added into the PS HP-β-CD solution, which was then centrifuged at 3000 rpm for 10 min to remove undissolved particles. The supernatant was collected and pH was adjusted to the desired value using a NaOH solution. The analgesic effect of PS was examined as above.
# The effect of PS and other compounds on corneal sensitivity was determined in rabbits with normal or dry eyes using the CTT assay as above; DED was induced by Concanavalin A as previously described. The CTT score, expressed as filament length in mm, of normal eyes was 5.56±0.11 mm (mean±SEM for this and subsequent values) and in dry eyes 4.17±0.12 mm; the difference between the two is statistically significant (p<0.0001).
# [2] = PS biodistribution after topical alternative gellan gum-based in-situ gel; assay type: in vivo, New Zealand white rabbits; settings: New Zealand white, rabbit, alternative gellan gum 0.4% gel
# Description: Composition: 2.4-3% PS; 0.4% Gellan gum; 10% Vitamin E TPGS; 5% (2-hydroxypropyl)-β-cyclodextrin.
# Results: PS in this formulation was administered topically to the eyes of New Zealand white rabbits and its biodistribution was determined as above.
# [3] = aqueous humor, read-out: PS in Aqueous humor
# [4] = conjunctiva, read-out: PS in Conjunctiva
structure (smiles),measurement,setting,value
"CCOP(=O)(OCC)OCCCCOC(=O)CC1=C(C)/C(=C/c2ccc([S+](C)[O-])cc2)c2ccc(F)cc21 (centres unmarked) [PS, phosphosulindac]",inhibition of peripheral neovascularization,[1],36%
same,reduction of central avascular area,[1],51%
same,clinical score,"uveitis; mean±SEM, vehicle 3.3±0.2",1.8±0.2
same,inflammatory cells in the tissues of the anterior chamber,uveitis; vehicle 203±39,12±2.3
same,number of cells,"uveitis; aqueous humor, vehicle 543±132",164±31
same,"effect on corneal sensitivity (CTT), dry eyes",corneal sensitivity; 0.05% PS,ineffective
same,"effect on corneal sensitivity (CTT), dry eyes",corneal sensitivity; 0.2% and 1.6% PS,essentially equipotent
same,"effect on corneal sensitivity (CTT), dry eyes","corneal sensitivity; Con A-induced dry eyes, single eye drop",restored the already suppressed ocular sensitivity
same,variation of AUC of analgesic response between formulations differing in pH,"corneal sensitivity; PS 0.5%, HP-β-CD formulation",> 5 fold
same,duration of response of corneal sensation,corneal sensitivity; dry eye,less than 100 min
same,onset of response of corneal sensation,corneal sensitivity; dry eye,≤ 5 min
same,time at which values returned to baseline,corneal sensitivity; dry eyes,100 min
same,analgesic effect (CTT),"corneal sensitivity; naïve rabbits, single eye drop, PS 0.5%",essentially instantaneous and significant analgesia
same,"effect on corneal sensitivity (CTT), normal eyes","corneal sensitivity; single eye drop, various PS concentrations",dose-dependent analgesic effect
same,concentration at 0.5 h,[2]; [3],600 nM
same,concentration at 1 h,[2]; [3],400 nM
same,concentration at 0.5 h,[2]; [4],37700 nM
same,concentration at 1 h,[2]; [4],20800 nM
same,concentration at 3 h,[2]; [4],700 nM
same,concentration at 5 h,[2]; [4],1100 nM
same,concentration at 8 h,[2]; [4],700 nM
same,concentration at 0.5 h,"[2]; cornea, read-out: PS in Cornea",24300 nM
same,concentration at 1 h,"[2]; cornea, read-out: PS in Cornea",50800 nM
same,concentration at 3 h,"[2]; cornea, read-out: PS in Cornea",1500 nM
same,concentration at 5 h,"[2]; cornea, read-out: PS in Cornea",1100 nM
same,concentration at 8 h,"[2]; cornea, read-out: PS in Cornea",1600 nM
